Data published in patent publication US8445461B2, “Pharmaceutical composition for meniere's disease” (Setsuko Takeda, priority 2007, dated 2013).

Assays:
[1] = system: experimental endolymphatic hydrops; assay: Endolymphatic hydrops decompression effect: IR-L, IR-S and regression lines in the operated ear; assay type: in vivo, guinea pigs; conditions: for Regression line IR-S vs IR-L: Y-intercept / Regression line IR-S vs IR-L: slope: operated ears; for Regression line IR-S vs IR-L: Y-intercept / Regression line IR-S vs IR-L: slope / IR-L (%) increase ratio of the length of Reissner's membrane / IR-S (%) increase ratio of the cross-sectional area of the scala media: active agent 2.8 g/kg oral; for IR-L (%) increase ratio of the length of Reissner's membrane / IR-S (%) increase ratio of the cross-sectional area of the scala media: operated side
Experimental: The endolymphatic hydrops-decompression effect of saccharides or sugar alcohols was evaluated by assaying as below in triplicate. Firstly, guinea pigs received the surgical obliteration of the endolymphatic sac in the left ear to prepare “experimental model animals with endolymphatic hydrops”. The surgical obliteration of the endolymphatic sac was carried out by burning the extraskeletal portion in the endolymphatic sac with a bipolar electrocoagulator. An endolymphatic sac plays an important role in the absorption of endolymphatic fluid. The inhibition of absorption of endolymphatic fluid was caused by burning the endolymphatic sac to prepare an experimental endolymphatic hydrops. Those hydrops are progressively formed. The size of hydrops becomes constant 2 weeks to month after the surgery and maintained for several months. In detail, see Non-patent Reference 8 for the surgery.
After 1 month, they were divided into 3 groups: Group 2-1 (groups 1-6), 60 animals; Group 2-2 (groups 7-10), 40 animals; and Group 2-3 (groups 11-20), […]. The animals in Group 2-1 received saccharides or sugar alcohols alone (Reference Example 5). The animals in Group 2-2 orally received saccharides or sugar alcohols added polysaccharides. The animals in Group 2-3 received other combinations of saccharides or sugar alcohols added polysaccharides. Animals were sacrificed after the oral administration and the observation and the assessment the gastrointestinal condition, and observed the morphological change of the cochlea mainly in the operated side (left side), in particular of the endolymphatic hydrops decompression effect.
I were obtained left sides of the temporal bones immediately following fixation and kept them in 10% formalin solution for 10 days or more. They were decalcified with 5% trichloroacetic acid and dehydrated with alcohol in increasing concentration, then embedded in paraffin and celloidin. The prepared blocks were cut serially in the horizontal plane. The mid-modiolar sections were stained in hematoxylin and eosin and studied under a light microscope. For the quantitative assessment of changes of the endolymphatic space, the change ratios of the length of Reissner's membrane and the cross-sectional area of the scala media in each turn were measured from the mid-modiolar sections of the cochlea.
From these parameters, the increase ratios (%) of the length of Reissner's membrane (IR-L) and the cross-sectional area (%) of the scala media (IR-S) of a total of four turns were calculated according to the equation as described below:
The increase ratio of the length of Reissner's membrane (IR-L)=100×Σ(Lx−L*x)/ΣL*x (x: first, second, third and fourth turns)
The increase ratio of the cross-section area of the scala media (IR-S)=100×Σ(Sx−S*x)/ΣS*x (x: first, second, third and fourth turns)
Since almost no difference is shown in the regression lines of each group, it cannot be understood that there is the decompression effect of erythritol alone. When endolymphatic hydrops is formed, the cross-sectional area of scala media and the length of Reissner's membrane will increase. It can be assumed from FIG. 1 that there is statistically a primary correlation between both of them in the operated side in the control group. The regression lines are; IR-S (distilled water)=4.011+1.212*IR-L (distilled water); R2=0.987, IR-S (1 hour after)=5.409+1.1*IR-L (1 hour after); R2=0.903, IR-S (2 hours after)=1.125+0.992*IR-L (2 hours after); R2=0.98, IR-S (3 hours after)=2.407+1.309*IR-L (3 hours after); R2=0.974, IR-S (6 hours after)=7.36+1.147*IR-L (6 hours after); R2=0.895, IR-S (12 hours after)=8.089+1.152*IR-L (12 hours after); R2=0.918.
The difference of decompression effect on endolymphatic hydrops depending on dose of pectin added and time-course of the decompression effect can hardly determined by comparing and analyzing the average and standard deviation of IR-L and IR-S in the operated side in each groups. […]

[2] = system: animal model of experimental endolymphatic hydrops; assay: Reference Example 6: erythritol added polyvinylpyrrolidone, conditions of feces; assay type: in vivo, guinea pigs; conditions: erythritol 2.8 g/kg oral, alone or with PVP
Experimental: Guinea pigs (280 to 350 g of body weight, normal feces) received the surgical obliteration of the endolymphatic sac in the left ear to prepare an “animal model of experimental endolymphatic hydrops”. The surgery was performed as previously described in Non-patent Reference 8.
One month after, the animals orally received erythritol (2.8 g/kg) added polyvinylpyrrolidone (0.5 g/kg, about 7.1% by weight). […] The result is shown in FIG. 10 with comparing Group 4 in Example 2 (Animals were sacrificed 3 hours after the administration of erythritol 2.8 g/kg alone).

[3] = alone or with additive, 3 hours after
[4] = alone or with additive, 6 hours after
[5] = alone or with additive, 12 hours after
[6] = alone or with additive, perfusion 3 hours after
[7] = alone or with additive, perfusion 6 hours after
[8] = alone or with additive, perfusion 12 hours after

## OC[C@@H](O)[C@@H](O)CO [Erythritol, erythritol]
[1]; erythritol 2.8 g/kg alone, E1H to E12H groups (1 to 12 hours after)
  Difference of regression lines from control (ANCOVA test): no significant difference
[1]; [3]
  Regression line IR-S vs IR-L: Y-intercept: 2.407
  Regression line IR-S vs IR-L: slope: 1.309
[1]; [4]
  Regression line IR-S vs IR-L: Y-intercept: 7.36
  Regression line IR-S vs IR-L: slope: 1.147
[1]; [5]
  Regression line IR-S vs IR-L: Y-intercept: 8.089
  Regression line IR-S vs IR-L: slope: 1.152
[1]; 1 hour after
  Regression line IR-S vs IR-L: Y-intercept: 5.409
  Regression line IR-S vs IR-L: slope: 1.1
[1]; 2 hours after
  Regression line IR-S vs IR-L: Y-intercept: 1.125
  Regression line IR-S vs IR-L: slope: 0.992
[1]; [6]
  IR-L (%) increase ratio of the length of Reissner's membrane: 23.2 ± 16.9%
  IR-S (%) increase ratio of the cross-sectional area of the scala media: 32.7 ± 22.4%
[1]; [7]
  IR-L (%) increase ratio of the length of Reissner's membrane: 37.8 ± 24.8%
  IR-S (%) increase ratio of the cross-sectional area of the scala media: 51.4 ± 38.1%
[1]; [8]
  IR-L (%) increase ratio of the length of Reissner's membrane: 37.5 ± 18.7%
  IR-S (%) increase ratio of the cross-sectional area of the scala media: 51.4 ± 22.5%
[1]; perfusion 1 hour after
  IR-L (%) increase ratio of the length of Reissner's membrane: 24.2 ± 20.2%
  IR-S (%) increase ratio of the cross-sectional area of the scala media: 32.1 ± 23.3%
[1]; perfusion 2 hours after
  IR-L (%) increase ratio of the length of Reissner's membrane: 29.4 ± 25.5%
  IR-S (%) increase ratio of the cross-sectional area of the scala media: 30.2 ± 26.3%
[2]
  Hardness of feces 0 (Muddy): number of animals: 5
  Hardness of feces 1 (Soft): number of animals: 0
  Hardness of feces 2 (Slightly soft): number of animals: 0
  Hardness of feces 3 (Normal): number of animals: 0
